Columns and labels:
M14 = assay: Antiproliferative activity against human M14 cells assessed as cell growth at 10^-4 M after 48 hrs by sulforhodamine B assay; type: functional; settings: M14, 48 h, read-out: Activity
NCI-H460 = assay: Antiproliferative activity against human NCI-H460 cells assessed as cell growth at 10^-7 M after 48 hrs by sulforhodamine B assay; type: functional; settings: NCI-H460, 48 h, read-out: Activity
[1] = Antiproliferative activity against human HCC2998 cells assessed as growth inhibition after 48 hrs by sulforhodamine B assay; type: functional; settings: HCC 2998, 48 h; for CC50: read-out: LC50 (the source's name)
HT-29 = assay: Antiproliferative activity against human HT-29 cells assessed as cell growth at 10^-7 M after 48 hrs by sulforhodamine B assay; type: functional; settings: HT-29, 48 h, read-out: Activity
[2] = Antiproliferative activity against human NCI-ADR-RES cells assessed as growth inhibition after 48 hrs by sulforhodamine B assay; type: functional
[3] = Antiproliferative activity against human SKOV3 cells assessed as growth inhibition after 48 hrs by sulforhodamine B assay; type: functional; settings: SK-OV-3, 48 h; for CC50: read-out: LC50 (the source's name)
[4] = Antiproliferative activity against human NCI-ADR-RES cells assessed as cell growth at 10^-7 M after 48 hrs by sulforhodamine B assay; type: functional; settings: read-out: Activity
[5] = Antiproliferative activity against human UACC257 cells assessed as cell growth at 10^-6 M after 48 hrs by sulforhodamine B assay; type: functional; settings: UACC-257, 48 h, read-out: Activity
SK-MEL-5 = assay: Antiproliferative activity against human SK-MEL-5 cells assessed as cell growth at 10^-8 M after 48 hrs by sulforhodamine B assay; type: functional; settings: SK-MEL-5, 48 h, read-out: Activity
T47D = assay: Antiproliferative activity against human T47D cells assessed as cell growth at 10^-6 M after 48 hrs by sulforhodamine B assay; type: functional; settings: read-out: Activity
SR = assay: Antiproliferative activity against human SR cells assessed as cell growth at 10^-8 M after 48 hrs by sulforhodamine B assay; type: functional; settings: read-out: Activity
SK-MEL-2 = assay: Antiproliferative activity against human SK-MEL-2 cells assessed as cell growth at 10^-7 M after 48 hrs by sulforhodamine B assay; type: functional; settings: SK-MEL-2, 48 h, read-out: Activity
[6] = Antiproliferative activity against human PC3 cells assessed as growth inhibition after 48 hrs by sulforhodamine B assay; type: functional; settings: PC-3, 48 h
[7] = Antiproliferative activity against human HCC2998 cells assessed as cell growth at 10^-6 M after 48 hrs by sulforhodamine B assay; type: functional; settings: HCC 2998, 48 h, read-out: Activity
MDA-MB-468 = assay: Antiproliferative activity against human MDA-MB-468 cells assessed as cell growth at 10^-7 M after 48 hrs by sulforhodamine B assay; type: functional; settings: MDA-MB-468, 48 h, read-out: Activity
NCI-H226 = assay: Antiproliferative activity against human NCI-H226 cells assessed as growth inhibition after 48 hrs by sulforhodamine B assay; type: functional; settings: NCI-H226, 48 h; for CC50: read-out: LC50 (the source's name)
[8] = Antiproliferative activity against human IGROV1 cells assessed as growth inhibition after 48 hrs by sulforhodamine B assay; type: functional; settings: IGROV-1, 48 h; for CC50: read-out: LC50 (the source's name)
[9] = Antiproliferative activity against human TK10 cells assessed as cell growth at 10^-8 M after 48 hrs by sulforhodamine B assay; type: functional; settings: TK-10, 48 h, read-out: Activity
EKVX = assay: Antiproliferative activity against human EKVX cells assessed as cell growth at 10^-8 M after 48 hrs by sulforhodamine B assay; type: functional; settings: read-out: Activity
[10] = Antiproliferative activity against human BT549 cells assessed as cell growth at 10^-8 M after 48 hrs by sulforhodamine B assay; type: functional; settings: BT-549, 48 h, read-out: Activity
[11] = Antiproliferative activity against human UO31 cells assessed as cell growth at 10^-6 M after 48 hrs by sulforhodamine B assay; type: functional; settings: UO-31, 48 h, read-out: Activity
[12] = Antiproliferative activity against human HOP92 cells assessed as growth inhibition after 48 hrs by sulforhodamine B assay; type: functional; settings: HOP-92, 48 h
[13] = Antiproliferative activity against human IGROV1 cells assessed as cell growth at 10^-7 M after 48 hrs by sulforhodamine B assay; type: functional; settings: IGROV-1, 48 h, read-out: Activity
[14] = Antiproliferative activity against human OVCAR8 cells assessed as cell growth at 10^-7 M after 48 hrs by sulforhodamine B assay; type: functional; settings: OVCAR-8, 48 h, read-out: Activity
CYP1A2 = biological target: T1, CYP1A2 (Homo sapiens, UniProt P05177); assay: Inhibition of recombinant human CYP1A2 assessed as remaining enzyme activity using CYP1A2 blue as substrate at 10 uM after 5 mins in presence of NADP by fluorescence plate reader analysis; type: ADME; settings: recombinant human CYP1A2, probe CYP1A2 blue, read-out: Activity
T1 sequence (P05177 whole entry): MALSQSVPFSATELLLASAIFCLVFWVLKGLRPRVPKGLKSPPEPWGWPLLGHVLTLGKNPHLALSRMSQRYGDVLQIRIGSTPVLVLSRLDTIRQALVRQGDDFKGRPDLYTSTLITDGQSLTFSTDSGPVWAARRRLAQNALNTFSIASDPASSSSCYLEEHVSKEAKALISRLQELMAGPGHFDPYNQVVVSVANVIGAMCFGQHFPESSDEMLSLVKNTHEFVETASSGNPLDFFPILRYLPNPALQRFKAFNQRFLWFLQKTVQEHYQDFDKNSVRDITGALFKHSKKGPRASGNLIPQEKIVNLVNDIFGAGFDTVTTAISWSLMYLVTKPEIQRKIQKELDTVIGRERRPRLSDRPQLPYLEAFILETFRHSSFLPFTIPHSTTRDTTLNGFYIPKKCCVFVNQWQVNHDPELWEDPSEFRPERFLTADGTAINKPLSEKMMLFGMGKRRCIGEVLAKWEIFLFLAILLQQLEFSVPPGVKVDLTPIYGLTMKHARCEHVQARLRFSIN

MDA-MB-231 = assay: Antiproliferative activity against human MDA-MB-231 cells assessed as cell growth at 10^-7 M after 48 hrs by sulforhodamine B assay; type: functional; settings: MDA-MB-231, 48 h, read-out: Activity
[15] = Antiproliferative activity against human Caki1 cells assessed as growth inhibition after 48 hrs by sulforhodamine B assay; type: functional; settings: CAKI-1, 48 h; for CC50: read-out: LC50 (the source's name)
SN12C = assay: Antiproliferative activity against human SN12C cells assessed as growth inhibition after 48 hrs by sulforhodamine B assay; type: functional; settings: for CC50: read-out: LC50 (the source's name)
[16] = Antiproliferative activity against human RXF393 cells assessed as growth inhibition after 48 hrs by sulforhodamine B assay; type: functional; settings: RXF 393, 48 h; for CC50: read-out: LC50 (the source's name)

## CNC(=O)c1cc(Oc2ccc3nc(NC(=O)Nc4cc(C(F)(F)F)cc(C(F)(F)F)c4)sc3c2)ccn1
M14
  growth at 100 µM: -73%
NCI-H460
  growth at 0.1 µM: 108%
[1]
  GI50: 1.33 µM
  TGI: 3.23 µM
  CC50: 7.85 µM
HT-29
  growth at 0.1 µM: 97%
[2]
  GI50: 1.27 µM
  TGI: 3.19 µM
[3]
  GI50: 1.43 µM
  TGI: 3.18 µM
  CC50: 7.09 µM
[4]
  growth at 0.1 µM: 98%
[5]
  growth at 1 µM: 59%
SK-MEL-5
  growth at 0.01 µM: 97%
T47D
  growth at 1 µM: 32%
SR
  growth at 0.01 µM: 99%
SK-MEL-2
  growth at 0.1 µM: 97%
[6]
  GI50: 0.611 µM
  LC50: 7.07 µM
  TGI: 2.29 µM
[7]
  growth at 1 µM: 66%
MDA-MB-468
  growth at 0.1 µM: 91%
NCI-H226
  GI50: 1.45 µM
  TGI: 3.57 µM
  CC50: 8.79 µM
[8]
  GI50: 1.25 µM
  TGI: 3.16 µM
  CC50: 8.01 µM
[9]
  growth at 0.01 µM: 95%
EKVX
  growth at 0.01 µM: 81%
[10]
  growth at 0.01 µM: 89%
[11]
  growth at 1 µM: 65%
[12]
  GI50: 0.301 µM
  LC50: 5.14 µM
  TGI: 0.949 µM
[13]
  growth at 0.1 µM: 89%
[14]
  growth at 0.1 µM: 102%
CYP1A2
  activity at 5 min, 10 µM: 110%
MDA-MB-231
  growth at 0.1 µM: 98%
[15]
  GI50: 1.15 µM
  TGI: 2.69 µM
  CC50: 6.28 µM
SN12C
  GI50: 1.64 µM
  TGI: 3.79 µM
  CC50: 8.76 µM
[16]
  GI50: 1.25 µM
  TGI: 2.99 µM
  CC50: 7.16 µM

## CNC(=O)c1cc(Oc2ccc3nc(NC(=O)c4cc(C(F)(F)F)cc(C(F)(F)F)c4)sc3c2)ccn1
M14
  growth at 100 µM: -38%
NCI-H460
  growth at 0.1 µM: 105%
[1]
  GI50: 6.63 µM
  TGI: 24.7 µM
  CC50: 79.4 µM
HT-29
  growth at 0.1 µM: 107%
[2]
  GI50: 3.67 µM
  LC50 (concentration killing 50% of cells): > 100 µM
  TGI: 19.1 µM
[3]
  GI50: 2.52 µM
  TGI: 7.98 µM
  CC50: 73.7 µM
[4]
  growth at 0.1 µM: 103%
[5]
  growth at 1 µM: 101%
SK-MEL-5
  growth at 0.01 µM: 95%
T47D
  growth at 1 µM: 100%
SR
  growth at 0.01 µM: 91%
SK-MEL-2
  growth at 0.1 µM: 97%
[6]
  GI50: 2.53 µM
  LC50: > 100 µM
  TGI: 12.8 µM
[7]
  growth at 1 µM: 102%
MDA-MB-468
  growth at 0.1 µM: 96%
NCI-H226
  GI50: 4.15 µM
  TGI: 17.4 µM
  CC50: 76.2 µM
[8]
  GI50: 4.26 µM
  TGI: 27 µM
  CC50: > 100 µM
[9]
  growth at 0.01 µM: 95%
EKVX
  growth at 0.01 µM: 94%
[10]
  growth at 0.01 µM: 97%
[11]
  growth at 1 µM: 78%
[12]
  GI50: 1.68 µM
  LC50: > 100 µM
  TGI: 7.21 µM
[13]
  growth at 0.1 µM: 98%
[14]
  growth at 0.1 µM: 102%
CYP1A2
  activity at 5 min, 10 µM: 98.3%
MDA-MB-231
  growth at 0.1 µM: 107%
[15]
  GI50: 2.75 µM
  TGI: 10.7 µM
  CC50: 62.3 µM
SN12C
  GI50: 3.22 µM
  TGI: 12.5 µM
  CC50: 89.8 µM
[16]
  GI50: 2.79 µM
  TGI: 8.37 µM
  CC50: 40 µM

## CNC(=O)c1cc(Oc2ccc3nc(NC(=O)Nc4ccc(Cl)c(Cl)c4)sc3c2)ccn1
M14
  growth at 100 µM: -46%
NCI-H460
  growth at 0.1 µM: 109%
[1]
  GI50: 5.04 µM
  TGI: > 100 µM
  CC50: > 100 µM
HT-29
  growth at 0.1 µM: 105%
[2]
  GI50: 2.3 µM
  LC50 (concentration killing 50% of cells): > 100 µM
  TGI: 5.09 µM
[3]
  GI50: 2.24 µM
  TGI: 4.09 µM
  CC50: 7.45 µM
[4]
  growth at 0.1 µM: 98%
[5]
  growth at 1 µM: 89%
SK-MEL-5
  growth at 0.01 µM: 99%
T47D
  growth at 1 µM: 106%
SR
  growth at 0.01 µM: 108%
SK-MEL-2
  growth at 0.1 µM: 118%
[6]
  GI50: 1.95 µM
  TGI: 4.33 µM
[7]
  growth at 1 µM: 100%
MDA-MB-468
  growth at 0.1 µM: 91%
NCI-H226
  GI50: 2.28 µM
  TGI: 4.58 µM
  CC50: 9.21 µM
[8]
  GI50: 2.55 µM
  TGI: 6.75 µM
  CC50: > 100 µM
[9]
  growth at 0.01 µM: 107%
EKVX
  growth at 0.01 µM: 89%
[10]
  growth at 0.01 µM: 94%
[11]
  growth at 1 µM: 106%
[12]
  GI50: 2.66 µM
  LC50: 18.8 µM
  TGI: 5.39 µM
[13]
  growth at 0.1 µM: 92%
[14]
  growth at 0.1 µM: 101%
CYP1A2
  activity at 5 min, 10 µM: 104%
MDA-MB-231
  growth at 0.1 µM: 97%
[15]
  GI50: 2.46 µM
  TGI: 6.3 µM
  CC50: > 100 µM
SN12C
  GI50: 3.92 µM
  TGI: > 100 µM
  CC50: > 100 µM
[16]
  GI50: 1.84 µM
  TGI: 3.65 µM
  CC50: 7.24 µM
